Data as given in US11389456B2, “Compounds and methods for treating oxalate-related diseases” (OxaluRx, Inc., priority 2018, dated 2022).

What was measured:
[1] = Stability in human plasma; type: in vitro ADME; settings: read-out: Plasma Stability T1/2
Method in brief: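 Pooled human plasma (pH 7.4-8) at 37° C, test compound spiked from a 0.02 mM solution in phosphate buffer with 0.5% BSA. Samples taken at 0, 5, 15, 30, 45 and 60 min, quenched with acetonitrile containing internal standard, and remaining compound measured by LC/MS.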

[2] = Metabolic stability in human liver microsomal preparation; type: in vitro ADME; settings: pH 7.4, human liver microsomes, NADPH, 37° C.
Method in brief: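 Compound at 1.5 μM with 0.75 mg/mL human liver microsomes (concentrations before NADPH addition) in 0.1 M potassium phosphate, 1 mM EDTA, pH 7.4 was preincubated 5 min at 37 °C, then started with NADPH. Samples at 0, 5, 15, 30 and 45 min were quenched with acetonitrile/internal standard and analysed by LC/MS.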

- half-life at 2 μM [1]: 0.706 h
- CLint scaled at 1 μM [2]: 1.19 mL/min/kg
- half-life at 1 μM ([2]; 0-45 min, read-out: Metabolic Stability t1/2): 24.3 h
SMILES: O=C(O)c1nn[nH]c1Sc1ccc(Cl)cc1 [Example I-001, 5-((4-chlorophenyl)thio)-1H-1,2,3-triazole-4-carboxylic acid]
